In PubChem BioAssay AID248 (DTP/NCI, 2004):
Where “and” joins values, the source holds several entries; their conditions need not be identical. Equal values may be shown once. Toxic doses and inconclusive results are not listed.

Test system: L1210 leukemia ip in BDF1 mice, survival T/C
Assay: NCI In Vivo Anticancer Drug Screen. Data for tumor model L1210 Leukemia (intraperitoneal) in B6D2F1 (BDF1) mice
Settings: endpoint: mean survival time, higher = longer survival
Outline: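 Transplantable tumor model; survival measured in treated vs vehicle control mice. Value = treated/control.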

SMILES: Nc1nc2n[nH]nc2c(=O)[nH]1
- T/C (dose: 1.25 mg/kg/injection, schedule: Q01DX015 (ip), vehicle: clinical formulation): 109 % of control
- T/C (dose: 1.4 mg/kg/injection, schedule: Q01DX Z (ip), vehicle: carboxymethylcellulose (CMC)): 109 % of control
- T/C (dose: 2.5 mg/kg/injection, schedule: Q01DX015 (ip), vehicle: clinical formulation): 107 % of control
- T/C (dose: 2.8 mg/kg/injection, schedule: Q01DX Z (ip), vehicle: carboxymethylcellulose (CMC)): 109 % of control
- T/C (dose: 3.13 mg/kg/injection, schedule: Q01DX010 (ip), vehicle: alkali diluted with saline): 108 % of control and 110 % of control
- T/C (dose: 5.0 mg/kg/injection, schedule: Q01DX015 (ip), vehicle: clinical formulation): 107 % of control
- T/C (dose: 5.0 mg/kg/injection, schedule: Q01DX Z (oral), vehicle: carboxymethylcellulose (CMC)): 115 % of control
- T/C (dose: 5.59 mg/kg/injection, schedule: Q01DX Z (ip), vehicle: carboxymethylcellulose (CMC)): 118 % of control
- T/C (dose: 6.25 mg/kg/injection, schedule: Q01DX010 (ip), vehicle: alkali diluted with saline): 122 % of control and 123 % of control
- T/C (dose: 7.5 mg/kg/injection, schedule: Q01DX Z (sc), vehicle: carboxymethylcellulose (CMC)): 112 % of control
- T/C (dose: 10.0 mg/kg/injection, schedule: Q01DX015 (ip), vehicle: clinical formulation): 117 % of control
- T/C (dose: 10.0 mg/kg/injection, schedule: Q01DX Z (oral), vehicle: carboxymethylcellulose (CMC)): 103 % of control
- T/C (dose: 12.5 mg/kg/injection, schedule: Q01DX006 (iv), vehicle: water): 104 % of control
- T/C (dose: 12.5 mg/kg/injection, schedule: Q01DX Z (im), vehicle: water): 121 % of control
- T/C (dose: 12.5 mg/kg/injection, schedule: Q01DX Z (ip), vehicle: other): 97 % of control
- T/C (dose: 15.0 mg/kg/injection, schedule: Q01DX Z (sc), vehicle: carboxymethylcellulose (CMC)): 106 % of control
- T/C (dose: 20.0 mg/kg/injection, schedule: Q01DX015 (ip), vehicle: water): 101 % of control
- T/C (dose: 20.0 mg/kg/injection, schedule: Q01DX Z (oral), vehicle: carboxymethylcellulose (CMC)): 95 % of control
- T/C (dose: 22.35 mg/kg/injection, schedule: Q01DX Z (ip), vehicle: carboxymethylcellulose (CMC)): 152 % of control
- T/C (dose: 25.0 mg/kg/injection, schedule: Q01DX005 (ip), vehicle: other): 111 % of control
- T/C (dose: 25.0 mg/kg/injection, schedule: Q01DX006 (iv), vehicle: water): 113 % of control
- T/C (dose: 25.0 mg/kg/injection, schedule: Q01DX009 (ip), vehicle: saline): 154 % of control and 160 % of control
- T/C (dose: 25.0 mg/kg/injection, schedule: Q01DX009 (sc), vehicle: carboxymethylcellulose (CMC)): 104 % of control
- T/C (dose: 25.0 mg/kg/injection, schedule: Q01DX Z (ip), vehicle: other): 106 % of control
- T/C (dose: 30.0 mg/kg/injection, schedule: Q01DX Z (ip), vehicle: other): 121 % of control
- T/C (dose: 40.0 mg/kg/injection, schedule: Q01DX009 (ip), vehicle: other): 159 % of control
- T/C (dose: 40.0 mg/kg/injection, schedule: Q01DX Z (oral), vehicle: carboxymethylcellulose (CMC)): 109 % of control
- T/C (dose: 44.0 mg/kg/injection, schedule: Q01DX015 (ip), vehicle: water): 98 % of control and 115 % of control
- T/C (dose: 50.0 mg/kg/injection, schedule: Q01DX001 (ip), vehicle: steriod suspending solution): 117 % of control
- T/C (dose: 50.0 mg/kg/injection, schedule: Q01DX005 (ip), vehicle: other): 122 % of control
- T/C (dose: 50.0 mg/kg/injection, schedule: Q01DX009 (ip), vehicle: carboxymethylcellulose (CMC)): 159 % of control
- T/C (dose: 50.0 mg/kg/injection, schedule: Q01DX009 (ip), vehicle: other): 155 % of control
- T/C (dose: 50.0 mg/kg/injection, schedule: Q01DX009 (ip), vehicle: saline): 156 % of control and 158 % of control
- T/C (dose: 50.0 mg/kg/injection, schedule: Q01DX Z (im), vehicle: water): 160 % of control
- T/C (dose: 50.0 mg/kg/injection, schedule: Q01DX Z (oral), vehicle: other): 93 % of control
- T/C (dose: 50.0 mg/kg/injection, schedule: Q01DX Z (oral), vehicle: water): 98 % of control
- T/C (dose: 50.0 mg/kg/injection, schedule: Q01DX Z (sc), vehicle: water): 154 % of control
- T/C (dose: 60.0 mg/kg/injection, schedule: Q01DX009 (ip), vehicle: other): 152 % of control
- T/C (dose: 61.0 mg/kg/injection, schedule: Q01DX015 (ip), vehicle: water): 156 % of control
- T/C (dose: 62.0 mg/kg/injection, schedule: Q01DX001 (ip), vehicle: carboxymethylcellulose (CMC)): 121 % of control
- T/C (dose: 62.0 mg/kg/injection, schedule: Q01DX001 (sc), vehicle: carboxymethylcellulose (CMC)): 106 % of control
- T/C (dose: 64.0 mg/kg/injection, schedule: Q## X024 (ip), vehicle: other): 150 % of control
- T/C (dose: 75.0 mg/kg/injection, schedule: Q01DX009 (ip), vehicle: other): 156 % of control
- T/C (dose: 75.0 mg/kg/injection, schedule: Q02DX005 (ip), vehicle: carboxymethylcellulose (CMC)): 159 % of control
- T/C (dose: 87.0 mg/kg/injection, schedule: Q01DX001 (ip), vehicle: water): 115 % of control and 122 % of control
